Like-named read-outs stand apart in the source and are kept apart here.

Series [1] in a line: Preparation of liposome: maximum amount of compound forming liposome, particle size. The series is classed as physicochemical. The conditions noted are these: with dipalmitoyl-PC 50 nmol + dipalmitoyl-PS 50 nmol, 0.9% physiological saline, ultrasonicated. On the procedure: According to the method described in J. Med. Chem., 25 (12), 1500 (1982), the disclosure of which is expressly incorporated by reference herein in its entirety, dipalmitoyl-PC (Funakoshi, No. 1201-41-0225), dipalmitoyl-PS (Funakoshi, No. 1201-42-0237), and the compound of the present invention, in the ratio described below, were dissolved in chloroform contained in an eggplant-shaped flask to obtain a uniform solution, and then the solvent was evaporated under reduced pressure to obtain a thin membrane formed on the bottom of the flask. The thin membrane was dried in vacuo, then added with an appropriate volume of 0.9% physiological saline (Hikari Pharmaceutical, No. 512) and ultrasonicated (probe type oscillator, Branson, No. 3542, 0.1 mW) for 5 minute with ice cooling to obtain a uniform liposome dispersion. Size of the particles contained in the resulting dispersion was measured by using WBC analyzer (Nihon Kohden, A-1042). The particle sizes were 85 to 110 nm.
Liposome formulation having the ratio of PC:PS:Compound d1-6=50:50:40 (nmol), and a particle sizes of 85 to 120 nm are prepared from a chloroform solution of PC (dipalmitoyl-phosphatidylcholine Funakoshi, No. 850355C), PS (dipalmitoyl-phosphatidylserine Funakoshi, No. 840037C), and Compound d1-6.

Series [2] has as its system vascular smooth muscle cells. As to the kind of experiment: Introduced amount of the compounds to vascular smooth muscle cells (mixture culture with macrophage). The series is classed as cell-based. Particulars: liposome PC 50 nmol + PS 50 nmol + compound, 37° C., 5% CO2, 24 hours. The protocol:
The above liposome agent was added to a mixture culture system of vascular smooth muscle cells and macrophage, described in WO 01/082897, the disclosure of which is expressly incorporated by reference herein in its entirety. After cultivation under 37° C., 5% CO2 for 24 hours, the amount of the compounds introduced to the vascular smooth muscle cells were quantitated.

The next series relates to ICR male mice. The series is classed as in vivo. On the procedure:
Six-week old ICR male mice (Charles River Japan) were purchased, and after quarantine for 1 week, acclimatized for 1 week in a clean animal cage (air-conditioning: HEPA filter of class 1000, room temperature: 20 to 24° C., humidity: 35 to 60%). Then, in order to obtain the MTD value, a suspension of the test compound was administered from the caudal vein. The suspension was administered by using physiological saline (Hikari Pharmaceutical) or a glucose solution (Otsuka Pharmaceutical) as a medium. On the basis of the MTD value obtained, the suspension was administered everyday from the caudal vein for three consecutive days in an amount corresponding to ½ of the MTD value (n=3). Symptoms were observed up to 6 hours after each administration to observe neurotoxicity, and then autopsy was performed to examine major organs.
Compound (MTD (mg/kg)): neurotoxicity (“−” indicates negative for neurotoxicity, and “+” indicate positive for neurotoxicity)

Setting [3] is: suspension administered from the caudal vein, ICR male mice.

Take `CC(C)CCC[C@@H](C)[C@H]1CC[C@H]2[C@@H]3CC=C4C[C@@H](OC(=O)Oc5cc(C(F)(F)F)cc(C(F)(F)F)c5)CC[C@]4(C)[C@H]3CC[C@]12C` [Compound b1-1]: the “Maximum amount forming liposome” value in series [1] is on record as 40 nmol. For the same molecule, in series [2], the Introduced amount worked out at 17.5 nmol/mg protein. Further, the MTD with ICR male mice (setting [3]) is reported as 400 mg/kg.
Take `CC(C)CCC[C@@H](C)[C@H]1CC[C@H]2[C@@H]3CC=C4C[C@@H](OC(=O)CCCCCCCCCC(C)Oc5cc(C(F)(F)F)cc(C(F)(F)F)c5)CC[C@]4(C)[C@H]3CC[C@]12C` (some centres unmarked) [Compound b1-8]: in series [1], the “Maximum amount forming liposome” value was found to be 20 nmol. Also, the Introduced amount in series [2] was 8.9 nmol/mg protein. In addition, in the series with ICR male mice (setting [3]), the MTD is given as 400 mg/kg.
The matching figures for `CC(C)CCC[C@@H](C)[C@H]1CC[C@H]2[C@@H]3CC=C4C[C@@H](OC(=O)CCC(=O)Oc5cc(C(F)(F)F)cc(C(F)(F)F)c5)CC[C@]4(C)[C@H]3CC[C@]12C` [Compound b4-2]: 20 nmol, 10.6 nmol/mg protein and 400 mg/kg.
As to `O=C(CCCCCCCC(F)(F)C(F)(F)C(F)(F)C(F)(F)C(F)(F)C(F)(F)F)OCC(COC(=O)CN1CCOCC1)OC(=O)CCCCCCCC(F)(F)C(F)(F)C(F)(F)C(F)(F)C(F)(F)C(F)(F)F` (centres unmarked) [Compound e1-6], the “Maximum amount forming liposome” value in series [1] is 40 nmol. In the series with ICR male mice (mouse, in vivo), the MTD is recorded as 400 mg/kg.
